# Measured values published in ChEMBL document CHEMBL3885881, “DrugMatrix”.
# Species on record: Rattus norvegicus
# Experiment: DrugMatrix - Regimen: Daily Repeat
# Format: toxicity, organism-based, Sprague-Dawley
# Design: regimen Daily Repeat, gender Male, age 6-8 weeks
# Conditions: in vivo, po, route oral GAVAGE, vehicle 100 % WATER; for ABSOLUTE BASOPHIL / ABSOLUTE EOSINOPHIL / ABSOLUTE LYMPHOCYTE / ABSOLUTE MONOCYTE / ABSOLUTE SEGMENTED NEUTROPHIL / BASOPHIL / EOSINOPHIL / ERYTHROCYTE COUNT / HEMATOCRIT / HEMOGLOBIN / LEUKOCYTE COUNT / LYMPHOCYTE / MEAN CORPUSCULAR HEMOGLOBIN / MEAN CORPUSCULAR HEMOGLOBIN CONCENTRATION / MEAN CORPUSCULAR VOLUME / MONOCYTE / NEUTROPHIL / NUCLEATED RED BLOOD CELLS / PLATELET COUNT: tissue Blood; for ALANINE AMINOTRANSFERASE / ALBUMIN / ALKALINE PHOSPHATASE / ASPARTATE AMINOTRANSFERASE / BLOOD UREA NITROGEN / CARBON DIOXIDE / CHLORIDE / CHOLESTEROL / CREATINE PHOSPHOKINASE / CREATININE / GLUCOSE / LACTATE DEHYDROGENASE / LIPASE / PHOSPHORUS / POTASSIUM / SODIUM / TOTAL BILIRUBIN / TOTAL PROTEIN / URIC ACID: tissue Plasma
# [1] = 30 mg/kg, 120 h, dose level Low, time 5 day
# [2] = 3000 mg/kg, 72 h, dose level High, time 3 day
# [3] = 3000 mg/kg, 120 h, dose level High, time 5 day
compound,measurement,setting,value
CC1COc2c(N3CCN(C)CC3)c(F)cc3c(=O)c(C(=O)O)cn1c23 (centres undefined) [OFLOXACIN],ABSOLUTE BASOPHIL,[1],0 CELLS/uL
same,ABSOLUTE EOSINOPHIL,[1],0 CELLS/uL
same,ABSOLUTE LYMPHOCYTE,[1],11457 CELLS/uL
same,ABSOLUTE MONOCYTE,[1],48.33 CELLS/uL
same,ABSOLUTE SEGMENTED NEUTROPHIL,[1],1361.33 CELLS/uL
same,BASOPHIL,[1],0%
same,EOSINOPHIL,[1],0%
same,ERYTHROCYTE COUNT,[1],5.63 x10E6/uL
same,HEMATOCRIT,[1],35.6%
same,HEMOGLOBIN,[1],14.27 G/DL
same,LEUKOCYTE COUNT,[1],12.87 x10E3/uL
same,LYMPHOCYTE,[1],89%
same,MEAN CORPUSCULAR HEMOGLOBIN,[1],25.37 pg
same,MEAN CORPUSCULAR HEMOGLOBIN CONCENTRATION,[1],40.07 G/DL
same,MEAN CORPUSCULAR VOLUME,[1],63.23 fL
same,MONOCYTE,[1],0.33%
same,NEUTROPHIL,[1],10.67%
same,NUCLEATED RED BLOOD CELLS,[1],0 /100WBC
same,PLATELET COUNT,[1],1227 x10E3/uL
same,ALANINE AMINOTRANSFERASE,[1],50 u/L
same,ALBUMIN,[1],4.2 G/DL
same,ALKALINE PHOSPHATASE,[1],350.67 u/L
same,ASPARTATE AMINOTRANSFERASE,[1],79 u/L
same,BLOOD UREA NITROGEN,[1],13.67 mg/dL
same,CARBON DIOXIDE,[1],33.67 mmol/L
same,CHLORIDE,[1],101.33 MEQ/L
same,CHOLESTEROL,[1],68.33 mg/dL
same,CREATINE PHOSPHOKINASE,[1],179.33 u/L
same,CREATININE,[1],0.19 mg/dL
same,GLUCOSE,[1],155.67 mg/dL
same,LACTATE DEHYDROGENASE,[1],144 u/L
same,LIPASE,[1],12.33 u/L
same,PHOSPHORUS,[1],11.93 mg/dL
same,POTASSIUM,[1],6.45 MEQ/L
same,SODIUM,[1],144.3 MEQ/L
same,TOTAL BILIRUBIN,[1],0.13 mg/dL
same,TOTAL PROTEIN,[1],5.9 G/DL
same,URIC ACID,[1],1.4 mg/dL
same,ABSOLUTE BASOPHIL,[2],0 CELLS/uL
same,ABSOLUTE EOSINOPHIL,[2],96.33 CELLS/uL
same,ABSOLUTE LYMPHOCYTE,[2],13060.67 CELLS/uL
same,ABSOLUTE MONOCYTE,[2],229.33 CELLS/uL
same,ABSOLUTE SEGMENTED NEUTROPHIL,[2],680.33 CELLS/uL
same,BASOPHIL,[2],0%
same,EOSINOPHIL,[2],0.67%
same,ERYTHROCYTE COUNT,[2],5.79 x10E6/uL
same,HEMATOCRIT,[2],36.3%
same,HEMOGLOBIN,[2],14.37 G/DL
same,LEUKOCYTE COUNT,[2],14.07 x10E3/uL
same,LYMPHOCYTE,[2],92.67%
same,MEAN CORPUSCULAR HEMOGLOBIN,[2],24.83 pg
same,MEAN CORPUSCULAR HEMOGLOBIN CONCENTRATION,[2],39.57 G/DL
same,MEAN CORPUSCULAR VOLUME,[2],62.7 fL
same,MONOCYTE,[2],1.67%
same,NEUTROPHIL,[2],5%
same,NUCLEATED RED BLOOD CELLS,[2],0 /100WBC
same,PLATELET COUNT,[2],1277.33 x10E3/uL
same,ALANINE AMINOTRANSFERASE,[2],62.33 u/L
same,ALBUMIN,[2],3.93 G/DL
same,ALKALINE PHOSPHATASE,[2],286.33 u/L
same,ASPARTATE AMINOTRANSFERASE,[2],99.33 u/L
same,BLOOD UREA NITROGEN,[2],13.33 mg/dL
same,CARBON DIOXIDE,[2],22.33 mmol/L
same,CHLORIDE,[2],105.33 MEQ/L
same,CHOLESTEROL,[2],67 mg/dL
same,CREATINE PHOSPHOKINASE,[2],1225.67 u/L
same,CREATININE,[2],0.2 mg/dL
same,GLUCOSE,[2],162.33 mg/dL
same,LACTATE DEHYDROGENASE,[2],245 u/L
same,LIPASE,[2],9.67 u/L
same,PHOSPHORUS,[2],11.1 mg/dL
same,POTASSIUM,[2],5.42 MEQ/L
same,SODIUM,[2],145.2 MEQ/L
same,TOTAL BILIRUBIN,[2],0.17 mg/dL
same,TOTAL PROTEIN,[2],5.57 G/DL
same,URIC ACID,[2],1.57 mg/dL
same,ABSOLUTE BASOPHIL,[3],0 CELLS/uL
same,ABSOLUTE EOSINOPHIL,[3],0 CELLS/uL
same,ABSOLUTE LYMPHOCYTE,[3],16402.33 CELLS/uL
same,ABSOLUTE MONOCYTE,[3],44.67 CELLS/uL
same,ABSOLUTE SEGMENTED NEUTROPHIL,[3],986.33 CELLS/uL
same,BASOPHIL,[3],0%
same,EOSINOPHIL,[3],0%
same,ERYTHROCYTE COUNT,[3],5.74 x10E6/uL
same,HEMATOCRIT,[3],35.4%
same,HEMOGLOBIN,[3],14.07 G/DL
same,LEUKOCYTE COUNT,[3],17.43 x10E3/uL
same,LYMPHOCYTE,[3],93.67%
same,MEAN CORPUSCULAR HEMOGLOBIN,[3],24.53 pg
same,MEAN CORPUSCULAR HEMOGLOBIN CONCENTRATION,[3],39.73 G/DL
same,MEAN CORPUSCULAR VOLUME,[3],61.73 fL
same,MONOCYTE,[3],0.33%
same,NEUTROPHIL,[3],6%
same,NUCLEATED RED BLOOD CELLS,[3],0 /100WBC
same,PLATELET COUNT,[3],1340 x10E3/uL
same,ALANINE AMINOTRANSFERASE,[3],60.33 u/L
same,ALBUMIN,[3],4.17 G/DL
same,ALKALINE PHOSPHATASE,[3],195 u/L
same,ASPARTATE AMINOTRANSFERASE,[3],83 u/L
same,BLOOD UREA NITROGEN,[3],14.33 mg/dL
same,CARBON DIOXIDE,[3],27 mmol/L
same,CHLORIDE,[3],104.33 MEQ/L
same,CHOLESTEROL,[3],67.33 mg/dL
same,CREATINE PHOSPHOKINASE,[3],394.67 u/L
same,CREATININE,[3],0.22 mg/dL
same,GLUCOSE,[3],147.67 mg/dL
same,LACTATE DEHYDROGENASE,[3],555.67 u/L
same,LIPASE,[3],10 u/L
same,PHOSPHORUS,[3],11.37 mg/dL
same,POTASSIUM,[3],5.87 MEQ/L
same,SODIUM,[3],144.67 MEQ/L
same,TOTAL BILIRUBIN,[3],0.13 mg/dL
same,TOTAL PROTEIN,[3],5.97 G/DL
same,URIC ACID,[3],1.67 mg/dL
